Earlier results as cited in US12648914B2, “Injectable sustained release composition and method of using the same for treating inflammation in joints and pain associated therewith” (priority 2013, dated 2026).

Legend:
[1] = reported, Möllmann et al. 1998, after inhaled administration
[2] = human subjects, 40 mg

| EC50 [1] [ng/mL] | SMILES | release profile after intra-articular administration [2] |
| --- | --- | --- |
| 0.007 to 0.03 | CCC(=O)O[C@]1(C(=O)SCF)[C@H](C)C[C@H]2[C@@H]3C[C@H](F)C4=CC(=O)C=C[C@]4(C)[C@@]3(F)[C@@H](O)C[C@@]21C [fluticasone propionate] |  |
|  | CC(C)(C)CC(=O)OCC(=O)[C@@]12OC(C)(C)O[C@@H]1C[C@H]1[C@@H]3CCC4=CC(=O)C=C[C@]4(C)[C@@]3(F)[C@@H](O)C[C@@]12C [triamcinolone hexacetonide] | significant initial burst followed by rapid decline |
